In ChEMBL document CHEMBL5576090, “Structural Diversification of Pyrazinone Metabolites via Spontaneous Oxa-Michael Addition in Staphylococcus xylosus” (2024):
Residues, ends and D or L forms follow the SMILES beside them. *: point of attachment. Boc = CC(C)(C)OC(=O)*

What was measured:
Assay type in all cases: functional
Bacillus subtilis = assay: Antibacterial activity against Bacillus subtilis measured after 12 hrs
Staphylococcus aureus = assay: Antibacterial activity against methicillin-resistant Staphylococcus aureus measured after 12 hrs
Saccharomyces cerevisiae = assay: Antifungal activity against Saccharomyces cerevisiae measured after 24 hrs
Acinetobacter baumannii = assay: Antibacterial activity against Acinetobacter baumannii measured after 12 hrs
[1] = Antimigratory activity against mouse MTV/TM-011 cells assessed as wound closure measured after 24 hrs by optical microscopic analysis relative to control; parameters: concentration or dose not given beside the values
Escherichia coli = assay: Antibacterial activity against Escherichia coli measured after 12 hrs
[2] = Antimigratory activity against mouse MTV/TM-011 cells assessed as wound closure at 20 uM measured after 24 hrs by optical microscopic analysis relative to control

Compound	MIC (Bacillus subtilis) [µM]	MIC (Staphylococcus aureus) [µM]	MIC (Saccharomyces cerevisiae) [µM]	MIC (Acinetobacter baumannii) [µM]	Activity [1] [%]	MIC (Escherichia coli) [µM]	Activity [2] [%]
COC(C)(C)c1ncc(Cc2ccc(O)cc2)[nH]c1=O	> 100	> 100	> 100	> 100	65	> 100	–
CC(C)Cc1cnc(C(C)C)c(=O)[nH]1	> 100	> 100	> 100	> 100	65	> 100	–
O=c1[nH]cc(F)c(=O)[nH]1 [FLUOROURACIL]	–	–	–	–	65	–	–
CC(C)(O)c1ncc(Cc2ccc(O)cc2)[nH]c1=O	> 100	> 100	> 100	> 100	65	> 100	–
CC(C)[C@H](NC(=O)OC(C)(C)C)C(=O)N[C@H](C=O)Cc1ccccc1 (Boc-Val-Phe-aldehyde)	> 100	> 100	> 100	> 100	–	> 100	65
COC(C)(C)c1ncc(Cc2ccccc2)[nH]c1=O	> 100	> 100	> 100	> 100	65	> 100	–
CC(C)c1ncc(Cc2ccccc2)nc1O	> 100	> 100	> 100	> 100	72	> 100	–
CC(C)c1ncc(Cc2ccc(O)cc2)[nH]c1=O	> 100	> 100	> 100	> 100	65	> 100	–
CC(C)(O)c1ncc(Cc2ccccc2)[nH]c1=O	> 100	> 100	> 100	> 100	70	> 100	–
